Laboratory results reported in US12653189B2, “Herbicidal compositions comprising glyphosate” (BASF SE, priority 2023, dated 2026).

Assays:
Assay in all cases: Post-emergence application in field trials
Type in all cases: in vivo
[1] = system: DIGIN = TRCIN (Digitaria insularis); settings: height 20-30 cm, A-1 50 g ai/ha, B-6 1080 g ai/ha, 7 DAT, water volume 200 l/ha, 0.5% v/v MSO
Method: (§1) In the examples below, using the method of S. R. Colby (1967) “Calculating synergistic and antagonistic responses of herbicide combinations”, Weeds 15, p. 22ff., the value E, which is expected if the activity of the individual active compounds is only additive, was calculated:
(§2) [formula] • where • X=percent activity using active herbicide A at an application rate a; • Y=percent activity using active glyphosate at an application rate b; • E=expected activity (in %) by A+B at application rates a+b.
(§3) For 3- and 4-component mixtures (examples 3-5) the synergistic response was calculated as described in: Ferry, Nancy; Stanley, Bruce H.; and Armel, Gregory (2005). “DESIGN AND ANALYSIS OF BIOLOGICAL ASSAYS OF MIXTURES,” Conference on Applied Statistics in Agriculture. https://doi.org/10.4148/2475-7772.1133. According to this publication, the Colby calculation can be generalized to a third mixing partner, Z, employing the following formula: […]
(§4) If the value found experimentally is higher than the value E calculated according to Colby, a synergistic effect is present.
(§5) On field test sites, natural weed infestation or seeded weeds were treated post-emergence of the weeds.
(§6) In the field trials, the weedy plants were treated as indicated below.
(§7) Herbicide A-1 (342 g/I), glyphosate (480 g/I or 575 g/l) and optional herbicide C were, together with addition of 0.5% v/v MSO (methylated seed oil) as adjuvant (unless indicated otherwise), formulated in water as distribution medium as indicated and sprayed with commercial flat fan nozzles.
(§8) In the following experiments, the herbicidal activity for the individual herbicidal compositions (solo and mixture applications) was assessed at the indicated days after treatment (DAT). The assessments for the damage on undesired weeds caused by the composition was carried out using a scale from 0 to 100%, compared to the untreated control plants. Here, 0 means no damage and 100 means complete destruction of the plants.

[2] = system: GLXMA (Glycine max (soybean)); settings: glyphosate-tolerant volunteer soybean M 6210 IPRO (GLXMA), growth stage 18; A-1 25 g ai/ha, B-6 1080 g ai/ha; 21 DAT; water volume 200 l/ha; 0.5% v/v MSO
Method: as §1, §2, §3, §4, §5, §6, §7, §8

[3] = system: AMAPA (Amaranthus palmeri); settings: Glyphosate (EPSPS) resistant AMAPA, height 5-23 cm; A-1 50 g ai/ha, B-6 840 g ai/ha; 21 DAT; water volume 140 l/ha; 1% v/v MSO + 2.5% v/v AMS
Method: as §1, §2, §3, §4, §5, §6, §7, §8

ELEIN (Eleusine indica) = settings: growth stage 23-25, height 3-5 cm, A-1 25 g ai/ha, B-6 1080 g ai/ha, 20 DAT, water volume 200 l/ha, 0.5% v/v MSO
Method: as §1, §2, §3, §4, §5, §6, §7, §8

[4] = system: COMBE (Commelina benghalensis); settings: B-6 1080 g ai/ha, 21 DAT, water volume 200 l/ha, 0.5% v/v MSO
Method: as §1, §2, §3, §4, §5, §6, §7, §8

IPOTR (Ipomoea triloba) = settings: B-6 1080 g ai/ha, 21 DAT, water volume 200 l/ha, 0.5% v/v MSO
Method: as §1, §2, §3, §4, §5, §6, §7, §8

[5] = system: BRADC (Brachiaria decumbens); settings: A-1 50 g ai/ha, B-6 1080 g ai/ha, 21 DAT, water volume 100 l/ha, 0.5% v/v MSO
Method: as §1, §2, §3, §4, §5, §6, §7, §8

ZEAMX (Zea mays (maize)) = settings: glyphosate-tolerant volunteer corn RB 9006 PRO 2 (ZEAMX), growth stage 18; A-1 25 g ai/ha, B-6 1080 g ai/ha; 21 DAT; water volume 200 l/ha; 0.5% v/v MSO
Method: as §1, §2, §3, §4, §5, §6, §7, §8

PANMA (Panicum maximum) = settings: A-1 25 g ai/ha, B-6 1080 g ai/ha, 21 DAT, water volume 100 l/ha, 0.5% v/v MSO
Method: as §1, §2, §3, §4, §5, §6, §7, §8

[6] = system: ECHCG (Echinocloa crus-galli); settings: growth stage 23-30, height 15-20 cm, water volume 200 l/ha, 0.25% v/v MSO
Method: as §1, §2, §3, §4, §5, §6, §7, §8

[7] = system: SPCHI (Spermacoce hispida); settings: height 25 cm, A-1 25 g ai/ha, B-6 1080 g ai/ha, 21 DAT, water volume 100 l/ha, 0.5% v/v MSO
Method: as §1, §2, §3, §4, §5, §6, §7, §8

[8] = system: AMARE (Amaranthus retroflexus)
Method: as §1, §2, §3, §4, §5, §6, §7, §8

AMATU = settings: growth stage 19, height 10-20 cm, A-1 50 g ai/ha, B-6 840 g ai/ha, 23 DAT, water volume 140 l/ha, 1% v/v MSO + 2.5% v/v AMS
Method: as §5, §6, §7, §8

[9] = system: HORVW (Hordeum vulgare (barley)); settings: HORVW volunteer crop, growth stage 23-29, height 20-25 cm; A-1 + C-4 12.5 + 12.5, B-6 840, C-1 12.5 g ai/ha; 7 DAT; water volume 200 l/ha; 0.25% v/v MSO
Method: as §1, §2, §3, §4, §5, §6, §7, §8

[10] = ECHCG, A-1 12.5, B-6 840, C-1 12.5 g ai/ha, 7 DAT
[11] = ECHCG, A-1 12.5, B-6 840, C-1 12.5 g ai/ha, 28 DAT
[12] = ECHCG, A-1 12.5, B-6 840, C-4 12.5 g ai/ha, 7 DAT
[13] = growth stage 19, height 10-20 cm, A-1 50 g ai/ha, B-6 840 g ai/ha, 23 DAT, water volume 140 l/ha, 1% v/v MSO + 2.5% v/v AMS
[14] = Table 5.1: ECHCG, A-1 + C-1 12.5 + 12.5, B-6 840, C-4 12.5 g ai/ha, 7 DAT
[15] = growth stage 32, height 12 cm, A-1 + B-6 12.5 + 840, C-1 12.5, C-4 12.5 g ai/ha, 42 DAT, water volume 200 l/ha, 0.25% v/v MSO
[16] = Table 5.2: ECHCG, A-1 + C-4 12.5 + 12.5, B-6 840, C-1 12.5 g ai/ha, 7 DAT

SMILES	% Herbicidal activity [1]	% Herbicidal activity [2]	% Herbicidal activity [3]	% Herbicidal activity (ELEIN (Eleusine indica))	% Herbicidal activity ([4]; A-1 25 g ai/ha)	% Herbicidal activity ([4]; A-1 50 g ai/ha)	% Herbicidal activity (IPOTR (Ipomoea triloba); A-1 25 g ai/ha)	% Herbicidal activity (IPOTR (Ipomoea triloba); A-1 50 g ai/ha)	% Herbicidal activity [5]	% Herbicidal activity (ZEAMX (Zea mays (maize)))	% Herbicidal activity (PANMA (Panicum maximum))	% Herbicidal activity [6, 10]	% Herbicidal activity [6, 11]	% Herbicidal activity [6, 12]	% Herbicidal activity [7]	% Herbicidal activity [8, 13]	% Herbicidal activity (AMATU)	% Herbicidal activity [6, 14]	% Herbicidal activity [8, 15]	% Herbicidal activity [9]	other results
CCOC(=O)COc1ccccc1Oc1nc(-n2c(=O)cc(C(F)(F)F)n(C)c2=O)c(F)cc1Cl [A-1, ethyl 2-[2-[[3-chloro-5-fluoro-6-[3-methyl-2,6-dioxo-4-(trifluoromethyl)pyrimidin-1-yl]-2-pyridyl]oxy]phenoxy]acetate]	58%	93%	74%	82%	60%	82%	82%	88%	71%	53%	73%	30%	20%	30%	30%	73%	73%				
C#CCN1C(=O)C(F)(F)Oc2cc(F)c(-n3c(=O)n(C)c(=S)n(C)c3=O)cc21 [C-4, trifludimoxazin]														20%				20%	45%		
O=C(O)CNCP(=O)(O)O [B-6, glyphosate-potassium]	2%	0%	10%	68%	30%	30%	30%	30%	75%	0%	75%	70%	94%	70%	20%	50%	50%	70%		80%	% Herbicidal activity [6, 16]: 70%
CC(C)N(C)S(=O)(=O)NC(=O)c1cc(-n2c(=O)cc(C(F)(F)F)n(C)c2=O)c(F)cc1Cl [C-1, saflufenacil]												20%	20%						55%	0%	% Herbicidal activity [6, 16]: 20%
